Consider ten molecules from patent US9289447B2, “Chemotherapeutic methods and compositions” (Gilead Biologics, Inc., priority 2009, dated 2016).

For one data set, the system named is MDA-MB-435 cells. In words: Chemotherapeutic sensitivity of MDA-MB-435 cells on extracellular matrices with anti-LOXL2 antibody. In kind it is cell-based, human. As to conditions: MDA-MB-435 cells plated on different extracellular matrices. On the procedure:
(§1) MDA-MB-435 cells (breast adenocarcinoma cell lines, ATCC, Manassas, Va.) are resuspended in medium containing 10-50 μg/mL anti-LOXL2 or control IgG antibody. Cells are seeded into 96 well tissue culture plates (10^3-10^4 cells in 100 μL per well) coated with poly-L-lysine, collagen I, collagen IV, fibronectin, or Matrigel™ (BD Biosciences, San Jose, Calif.). Alternatively, cells are plated in standard 96 well tissue culture plates (Costar, VWR International, West Chester, Pa.). Cells are incubated overnight at 37° C. in a 5% CO2 incubator. After sixteen to twenty hours, various concentrations of cisplatin (DDP), methotrexate, doxorubicin, docetaxel, gemcitabine, or 5-FU are added. Cells are incubated for 3-5 days at 37° C. in a 5% CO2 incubator, and the number of remaining live cells are quantified using the Cell Titer-Glo® luminescent cell viability assay (Promega, Madison, Wis.) according to the manufacturer's instructions. For each condition, samples are assayed in triplicate. The data are analyzed using GraphPad Prism software (or equivalent) to calculate IC50 values from a 4-parameter logistic equation.

Another data set has as its system Capan-1 cells. In words: Chemotherapeutic sensitivity of Capan-1 cells on extracellular matrices with anti-LOXL2 antibody. In kind it is cell-based. The note with it: Capan-1 cells plated on different extracellular matrices. The protocol:
as §1, with “Panc-1 or Capan-1” for “MDA-MB-435”, “(pancreas” for “(breast”, “gemcitabine, docetaxel,” for “cisplatin (DDP), methotrexate,”, “5-FU” for “docetaxel, gemcitabine,”, “erlotinib” for “5-FU”

The next data set relates to Panc-1 cells. In words: Chemotherapeutic sensitivity of Panc-1 cells on extracellular matrices with anti-LOXL2 antibody. In kind it is cell-based. As to conditions: Panc-1 cells plated on different extracellular matrices. The protocol: as §1, with “Panc-1 or Capan-1” for “MDA-MB-435”, “(pancreas” for “(breast”, “gemcitabine, docetaxel,” for “cisplatin (DDP), methotrexate,”, “5-FU” for “docetaxel, gemcitabine,”, “erlotinib” for “5-FU”

The subject of a further data set is MDA231 cells. In words: Erlotinib sensitivity (live cell number) of siRNA-transfected MDA231 cells. In kind it is cell-based, human. The note with it: for effect of siRNA transfection on sensitivity of the cells to erlotinib: MDA 231 cells grown on collagen, 5 days exposure to erlotinib; for effect of siRNA on sensitivity of the cells to erlotinib: MDA 231 cells grown on tissue culture plastic, separate experiments. The protocol: Cells from each of the four aforementioned lines were seeded at 3,000 cells per well in 96-well plates (VWR International, West Chester, Pa.), and cultured in Dulbecco's Modified Eagle's Medium supplemented with 10% fetal bovine serum (DMEM/FBS) at 37° C., 5% CO2 and atmospheric oxygen. Cells were cultured either in untreated wells or in collagen-coated wells, obtained or prepared as described above. Twenty-four hours later, medium was replaced with fresh medium containing various concentrations of erlotinib (LC Laboratories, Woburn, Mass.), cisplatin (Calbiochem, Gibbstown, N.J.) or methotrexate (Calbiochem, Gibbstown, N.J.). After 5 days' culture in the presence of the drug, live cell numbers were determined using the Cell Titer-Glo® luminescent cell viability assay (Promega, San Luis Obispo, Calif.) according to the manufacturer's instructions. For each cell line, three samples were assayed at each drug concentration.
(§2) MDA231 cells were seeded at 7,500 cells per well in 96-well plates (VWR International, West Chester, Pa.) in DMEM/FBS at 37° C., 5% CO2 and atmospheric oxygen. Cells were transfected at the time of seeding with […] RNA oligonucleotide, using the Dharmafect transfection reagent according to the manufacturer's instructions (Thermo Scientific, Lafayette, Colo.). Twenty-four hours later, the medium was replaced with medium containing various concentrations of erlotinib (LC Laboratories, Woburn, Mass.). After 5 days continuous exposure to drug, live cell number was determined as described in Example 1. For each condition, (LOX siRNA, LOXL2 siRNA, or non-targeting siRNA), three samples were assayed at each drug concentration. In addition, levels of mRNAs encoding LOX and LOXL 2 were determined in the in the samples transfected with the LOX- and LOXL2-targeted siRNAs, and normalized to levels of RPL19 mRNA (which encodes a ribosomal protein).

A further data set relates to LOX mRNA. In words: Quantitative PCR of LOX mRNA in siRNA-transfected MDA 231 cells. In kind it is cell-based, human. As to conditions: normalized to RPL19 mRNA, compared to non-targeting siRNA, FIG. 13. On the procedure:
as §2, with “For each condition, (LOX siRNA, LOXL2 siRNA, or non-targeting siRNA), three samples were assayed at each drug concentration.” left out
(§3) For RNA analysis, mRNA was harvested using an RNEasy Mini kit (Qiagen, Valencia, Calif.) according to the manufacturer's instructions. A quantitative PCR reaction was assembled using the Brilliant II Core reagent kit according to the manufacturer's instructions (Agilent Technologies, Cedar Creek, Tex.). The quantitative PCR reaction cycle was as follows: 30 min at 50° C., 10 min at 95° C. and 40 cycles of 15 sec at 95° C. in combination with 1 min at 60° C.

A further data set deals with LOXL2 mRNA. Put plainly: Quantitative PCR of LOXL2 mRNA in siRNA-transfected MDA 231 cells. In kind it is cell-based, human. As to conditions: normalized to RPL19 mRNA, compared to non-targeting siRNA, FIG. 13. On the procedure:
as §2, with “For each condition, (LOX siRNA, LOXL2 siRNA, or non-targeting siRNA), three samples were assayed at each drug concentration.” left out
as §3

Data set [1] concerns the target T1, LOXL2 (Homo sapiens, UniProt Q9Y4K0).
T1 sequence (Q9Y4K0 26-774): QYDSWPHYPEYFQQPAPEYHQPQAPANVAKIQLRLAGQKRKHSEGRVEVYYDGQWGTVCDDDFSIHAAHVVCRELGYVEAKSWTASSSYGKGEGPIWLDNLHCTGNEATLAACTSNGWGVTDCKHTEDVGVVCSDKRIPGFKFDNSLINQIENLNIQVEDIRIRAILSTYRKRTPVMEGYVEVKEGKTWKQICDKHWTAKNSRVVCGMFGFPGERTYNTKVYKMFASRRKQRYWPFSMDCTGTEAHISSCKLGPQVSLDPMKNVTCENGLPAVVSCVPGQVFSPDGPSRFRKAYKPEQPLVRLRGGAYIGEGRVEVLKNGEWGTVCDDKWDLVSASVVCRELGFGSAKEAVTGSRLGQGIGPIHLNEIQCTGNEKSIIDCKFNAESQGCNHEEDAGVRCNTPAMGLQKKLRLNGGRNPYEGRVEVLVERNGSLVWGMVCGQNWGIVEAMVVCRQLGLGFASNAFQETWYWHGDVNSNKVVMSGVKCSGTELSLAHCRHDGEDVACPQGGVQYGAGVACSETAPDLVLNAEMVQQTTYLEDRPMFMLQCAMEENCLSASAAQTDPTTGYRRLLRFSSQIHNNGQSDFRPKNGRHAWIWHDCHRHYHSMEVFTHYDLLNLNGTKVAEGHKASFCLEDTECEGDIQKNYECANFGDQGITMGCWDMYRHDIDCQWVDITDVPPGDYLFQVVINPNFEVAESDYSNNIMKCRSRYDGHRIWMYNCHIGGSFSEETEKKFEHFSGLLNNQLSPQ
The note with it: as disclosed in US 2009/0053224; cited from earlier work.

The target in data set [2] is T1, LOXL2. As to conditions: as disclosed in US 2009/0053224; cited from earlier work. This is another data set of the same source.

For the molecule `O=c1[nH]cc(F)c(=O)[nH]1` [5-FU, 5-fluorouracil], the “sensitivity of cells to the chemotherapeutic in the presence of anti-LOXL2 antibodies” value (shortened to “sensitivity of cells”) with MDA-MB-435 cells, with Capan-1 cells and in the data set on Panc-1 cells was “increased sensitivity” in each case.

For the molecule `N.N.[Cl][Pt][Cl]` [cisplatin (DDP), cis-diaminedichloroplatinum(II)], in the data set with MDA-MB-435 cells, the “sensitivity of cells” value is on record as “increased sensitivity”.

`CC(=O)O[C@@]12CO[C@@H]1C[C@H](O)[C@@]1(C)C(=O)[C@H](O)C3=C(C)[C@@H](OC(=O)[C@H](O)[C@@H](NC(=O)OC(C)(C)C)c4ccccc4)C[C@@](O)([C@@H](OC(=O)c4ccccc4)[C@H]21)C3(C)C` [docetaxel]: the “sensitivity of cells” value in the data set with MDA-MB-435 cells, with Capan-1 cells and with Panc-1 cells was “increased sensitivity” in each case.

For the molecule `COc1cccc2c1C(=O)c1c(O)c3c(c(O)c1C2=O)C[C@@](O)(C(=O)CO)C[C@@H]3O[C@H]1C[C@H](N)[C@H](O)[C@H](C)O1` [doxorubicin], the “sensitivity of cells” value in the data set on MDA-MB-435 cells, in the data set with Capan-1 cells and in the data set with Panc-1 cells was “increased sensitivity” in each case.

As to `C#Cc1cccc(Nc2ncnc3cc(OCCOC)c(OCCOC)cc23)c1` [erlotinib, N-(3-ethynylphenyl)-6,7-bis(2-methoxyethoxy)quinazolin-4-amine], the “killing of cells by erlotinib” value in the data set on MDA231 cells (MDA 231 cells on collagen matrix, transfected with siRNA nonhomologous to LOX or LOXL2, FIG. 14) is reported as “resistant to killing”. The “sensitivity of cells” value with Capan-1 cells and in the data set with Panc-1 cells was “increased sensitivity” throughout.

`Nc1ccn([C@@H]2O[C@H](CO)[C@@H](O)C2(F)F)c(=O)n1` [gemcitabine]: the “sensitivity of cells” value in the data set on MDA-MB-435 cells, in the data set with Capan-1 cells and with Panc-1 cells was “increased sensitivity” throughout.

Regarding `CN(Cc1cnc2nc(N)nc(N)c2n1)c1ccc(C(=O)N[C@@H](CCC(=O)O)C(=O)O)cc1` [methotrexate], in the data set on MDA-MB-435 cells, the “sensitivity of cells” value was “increased sensitivity”.

For the molecule “LOX-targeted siRNA: short RNA homologous to regions near the 3' end of LOX mRNA, from Invitrogen: ACAGGGAUUGAGUCCUGGCUGUUAU (listed as RNA, chemistry not given here)”, in the data set on MDA231 cells (FIG. 14), the “effect of siRNA transfection on sensitivity of the cells to erlotinib” value is “greatly increased sensitivity”. Besides, the “effect of siRNA on sensitivity of the cells to erlotinib” value with MDA231 cells is reported as “little or no effect”. For the same molecule, the “reduction of levels of LOX mRNA” value with LOX mRNA is recorded as “over two-fold”.

In the case of “LOXL2-targeted siRNA: siRNA homologous to the second SRCR domain of LOXL2, from Invitrogen: UCAACGAAUUGUCAAAUUUGAACCC (listed as RNA, chemistry not given here)”, the “effect of siRNA transfection on sensitivity of the cells to erlotinib” value with MDA231 cells (FIG. 14) is recorded as “greatly increased sensitivity”. Further, the “effect of siRNA on sensitivity of the cells to erlotinib” value with MDA231 cells was “little or no effect”. The “reduction of levels of LOXL2 mRNA” value in the data set with LOXL2 mRNA was “five-fold”.

B1: M20: monoclonal anti-LOXL2 antibody described in co-owned US 2009/0053224; variable regions SEQ ID NO: 12 and 13 (antibody, V domains shown)
VH: MEWSRVFIFLLSVTAGVHSQVQLQQSGAELVRPGTSVKVSCKASGYAFTYYLIEWVKQRPGQGLEWIGVINPGSGGTNYNEKFKGKATLTADKSSSTAYMQLSSLTSDDSAVYFCARNWMNFDYWGQGTTLTVSS
VL: MRCLAEFLGLLVLWIPGAIGDIVMTQAAPSVSVTPGESVSISCRSSKSLLHSNGNTYLYWFLQRPGQSPQFLIYRMSNLASGVPDRFSGSGSGTAFTLRISRVEAEDVGVYYCMQHLEYPYTFGGGTKLEIK
Regarding B1, in the data set with LOXL2 [1], the “extent of inhibition of LOXL2 enzymatic activity” value was “partial inhibitor” and the “mode of inhibition of LOXL2 enzymatic activity” value is on record as “non-competitive inhibitor”. The “binding site on LOXL2” value with LOXL2 [2] is recorded as “binds to the SRCR3-4 domain of LOXL2”.
